{"source": "patent US5721240A", "about": "“9-substituted-8-unsubstituted-9-deazaguanines” (BioCryst Pharmaceuticals, Inc., priority 1996, dated 1998)", "key": {"CCRF-CEM Cells": {"test_system": "CCRF-CEM Cells", "experiment": "2'-deoxyguanosine potentiation assay (cell growth inhibition of CCRF-CEM cells with d-Guo)", "type": "cell-based", "conditions": "Homo sapiens, + 2'-d-Guanosine 5.62 uM, 72 hours", "experimental": "The potentiation of the cell growth inhibitory activity (cytotoxicity) of 2'-deoxyguanosine (d-Guo) by the compounds of the invention is determined as follows: CCRF-CEM cells are grown in RPMI-1640 medium. To suspension cultures of these cells, d-Guo at a fixed concentration (5.62 μM) and the candidate PNP inhibitor at varied concentrations are added and the number of cells are determined in a Coulter counter 24, 48, and 72 hours thereafter. […] This method is similar to that previously used to determine the effectiveness of PNP inhibitors on potentiation of the toxicity of d-Guo [D. A. Shewach et al., Cancer Res., 46, 519 (1986); J. C. Sircar et al., Agents and Actions, 21, 253 (1987)]."}, "PNP (Calf spleen)": {"target": "T1, PNP (Calf spleen) (Bos taurus, UniProt P55859)", "T1 construct": "using calf spleen as the enzyme source; from tissue; host or cells: calf spleen", "T1 sequence (P55859 1-289)": "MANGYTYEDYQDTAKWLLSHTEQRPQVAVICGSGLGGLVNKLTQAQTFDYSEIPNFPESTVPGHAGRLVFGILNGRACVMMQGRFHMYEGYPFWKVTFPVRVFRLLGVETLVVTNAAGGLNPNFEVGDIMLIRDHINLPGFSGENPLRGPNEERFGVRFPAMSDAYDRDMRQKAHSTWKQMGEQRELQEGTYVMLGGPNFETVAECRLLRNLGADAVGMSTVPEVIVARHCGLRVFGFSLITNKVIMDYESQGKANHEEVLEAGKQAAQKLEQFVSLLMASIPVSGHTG", "experiment": "in vitro PNP inhibition assay (radiochemical, [14C]-hypoxanthine formation from [14C]-inosine)", "type": "biochemical"}, "plasma inosine": {"test_system": "plasma inosine", "experiment": "Effects on blood plasma levels of inosine in rats", "type": "in vivo, Lewis rats", "conditions": "i.p.; for Inosine Concentration: rat, 4 mg/kg", "experimental": "An effective method of evaluating in vivo effects of PNP inhibitors is to evaluate the level of plasma nucleosides following the administration of inhibitor. In particular, it has been shown that certain PNP inhibitors, which increase blood plasma levels of inosine, were subsequently found to prolong skin allograf survival.\nControl groups are used which receive only the vehicle. At specific times after administration, the animals are sacrificed and plasma samples are prepared. The plasma is extracted with cold 0.5 N HClO4 and neutralized with solid NH4 HCO3. After removal of perchlorate salts, the extract is subjected to HPLC on a reversed phase column (Spherisorb ODSI)."}, "[1]": {"conditions": "read-out: PNP (Calf spleen) IC50"}, "[2]": {"conditions": "8-unsubstituted compounds, calf spleen enzyme, 50 mM phosphate, read-out: PNP (Calf spleen) IC50"}, "[3]": {"conditions": "8-amino-substituted comparison compounds"}}, "note": "Like-named read-outs stand apart in the source and are kept apart here.", "data": [{"molecule": "Nc1nc2c(Cc3ccsc3)c[nH]c2c(=O)[nH]1", "note": "[Example 2l, 2-Amino-3,5-dihydro-7-(3-thienylmethyl)-4H-pyrrolo-[3,2-d]pyrimidin-4-one]", "values": [{"measurement": "IC50", "setting": "CCRF-CEM Cells; 8-unsubstituted compounds", "result": 2000, "unit": "nM"}, {"measurement": "IC50", "setting": "PNP (Calf spleen); [1]", "result": 80, "unit": "nM"}]}, {"molecule": "Nc1nc2c(Cc3ccc(Cl)c(Cl)c3)c[nH]c2c(=O)[nH]1", "note": "[Example 2i, 2-Amino-3,5-dihydro-7-(3,4-dichlorophenylmethyl)-4H-pyrrolo[3,2-d]pyrimidin-4-one]", "values": [{"measurement": "IC50", "setting": "PNP (Calf spleen); [2]", "result": 1000, "unit": "nM"}]}, {"molecule": "Nc1nc2c(Cc3ccccc3)c(N)[nH]c2c(=O)[nH]1", "note": "[Phenyl, reference compound]", "values": [{"measurement": "IC50", "setting": "CCRF-CEM Cells; [3]", "result": "> 15000", "unit": "nM"}, {"measurement": "IC50", "setting": "PNP (Calf spleen)", "result": 7700, "unit": "nM"}]}, {"molecule": "Nc1nc2c(Cc3cccc(O)c3)c[nH]c2c(=O)[nH]1", "note": "[Example 3b, 2-amino-3,5-dihydro-7-(3-hydroxyphenylmethyl)-4H-pyrrolo[3,2-d]pyrimidin-4-one]", "values": [{"measurement": "IC50", "setting": "CCRF-CEM Cells; 8-unsubstituted compounds", "result": 1700, "unit": "nM"}]}, {"molecule": "Nc1nc2c(Cc3cccc(C(F)(F)F)c3)c[nH]c2c(=O)[nH]1", "note": "[Example 2h, 2-Amino-3,5-dihydro-7-(3-trifluoromethylphenylmethyl)-4H-pyrrolo[3,2-d]pyrimidin-4-one]", "values": [{"measurement": "IC50", "setting": "PNP (Calf spleen); [2]", "result": 250, "unit": "nM"}]}, {"molecule": "Nc1nc2c(Cc3ccccc3O)c[nH]c2c(=O)[nH]1", "note": "[Example 3c, 2-amino-3,5-dihydro-7-(2-hydroxyphenylmethyl)-4H-pyrrolo[3,2-d]pyrimidin-4-one]", "values": [{"measurement": "IC50", "setting": "PNP (Calf spleen); [2]", "result": 1950, "unit": "nM"}]}, {"molecule": "Nc1nc(O)c2[nH]cc(Cc3ccccc3Cl)c2n1", "note": "[Example 2m, 2-Amino-3,5-dihydro-7-(2-chlorophenylmethyl)-4H-pyrrolo[3,2-d]pyrimidin-4-one]", "values": [{"measurement": "IC50", "setting": "PNP (Calf spleen); [2]", "result": 2300, "unit": "nM"}]}, {"molecule": "Nc1nc2c(Cc3cccc(Cl)c3)c[nH]c2c(=O)[nH]1", "note": "[Example 1, 2-amino-3,5-dihydro-7-(3-chlorophenylmethyl)-4H-pyrrolo[3,2d-]pyrimidin-4-one]", "values": [{"measurement": "IC50", "setting": "CCRF-CEM Cells; 8-unsubstituted compounds", "result": 800, "unit": "nM"}, {"measurement": "IC50", "setting": "PNP (Calf spleen)", "result": 140, "unit": "nM"}]}, {"molecule": "Nc1nc2c(Cc3ccc(Cl)cc3)c[nH]c2c(=O)[nH]1", "note": "[Example 2d, 2-Amino-3,5-dihydro-7-(4-chlorophenylmethyl)-4H-pyrrolo[3,2-d]pyrimidin-4-one]", "values": [{"measurement": "IC50", "setting": "CCRF-CEM Cells; 8-unsubstituted compounds", "result": 700, "unit": "nM"}]}, {"molecule": "Nc1nc2c(Cc3ccsc3)c(N)[nH]c2c(=O)[nH]1", "note": "[Example 3-Thienyl, reference compound]", "values": [{"measurement": "IC50", "setting": "CCRF-CEM Cells; [3]", "result": "> 20000", "unit": "nM"}]}, {"molecule": "Nc1nc2c(Cc3ccccc3)c[nH]c2c(=O)[nH]1", "note": "[Example 2c, 2-Amino-3,5-dihydro-7-(phenylmethyl)-4H-pyrrolo-[3,2-d]pyrimidin-4-one]", "values": [{"measurement": "IC50", "setting": "CCRF-CEM Cells; 8-unsubstituted compounds", "result": 600, "unit": "nM"}, {"measurement": "increase in plasma inosine", "setting": "plasma inosine; Lewis rats, summary in words", "result": "significant increase in plasma inosine"}, {"measurement": "Inosine Concentration", "setting": "plasma inosine; 0.50 hrs, Exp 1", "result": 3, "unit": "μMO"}, {"measurement": "Inosine Concentration", "setting": "plasma inosine; 0.50 hrs, Exp 3", "result": 10, "unit": "μMO"}, {"measurement": "Inosine Concentration", "setting": "plasma inosine; 1.0 hrs, Exp 1", "result": 7, "unit": "μMO"}, {"measurement": "Inosine Concentration", "setting": "plasma inosine; 1.0 hrs, Exp 3", "result": 7, "unit": "μMO"}, {"measurement": "Inosine Concentration", "setting": "plasma inosine; 1.5 hrs, Exp 3", "result": 6, "unit": "μMO"}, {"measurement": "Inosine Concentration", "setting": "plasma inosine; 1.5 hrs, Exp 7, listed as SRI 7109, 4 mg/kg", "result": 6, "unit": "μMO"}, {"measurement": "Inosine Concentration", "setting": "plasma inosine; 2.0 hrs, Exp 3", "result": 4, "unit": "μMO"}, {"measurement": "Inosine Concentration", "setting": "plasma inosine; 3.0 hrs, Exp 1", "result": 4, "unit": "μMO"}, {"measurement": "Inosine Concentration", "setting": "plasma inosine; 3.0 hrs, Exp 3", "result": 6, "unit": "μMO"}, {"measurement": "Inosine Concentration", "setting": "plasma inosine; 3.0 hrs, Exp 7, listed as SRI 7109, 4 mg/kg", "result": 6, "unit": "μMO"}, {"measurement": "Inosine Concentration", "setting": "plasma inosine; 4.0 hrs, Exp 2", "result": 3, "unit": "μMO"}, {"measurement": "Inosine Concentration", "setting": "plasma inosine; 5.0 hrs, Exp 2", "result": 2, "unit": "μMO"}, {"measurement": "Inosine Concentration", "setting": "plasma inosine; 6.0 hrs, Exp 2", "result": 0.5, "unit": "μMO"}, {"measurement": "Inosine Concentration", "setting": "plasma inosine; 8.0 hrs, Exp 2", "result": 0.6, "unit": "μMO"}, {"measurement": "Inosine Concentration", "setting": "plasma inosine; 10.0 hrs, Exp 2", "result": 0.3, "unit": "μMO"}, {"measurement": "Inosine Concentration", "setting": "plasma inosine; 24 hrs, Exp 1", "result": 0.3, "unit": "μMO"}]}, {"molecule": "Nc1nc2c(Cc3ccco3)c[nH]c2c(=O)[nH]1", "note": "[Example 2j, 2-Amino-3,5-dihydro-7-(2-furanylmethyl)-4H-pyrrolo-[3,2-d]pyrimidin-4-one]", "values": [{"measurement": "IC50", "setting": "CCRF-CEM Cells; 8-unsubstituted compounds", "result": 2300, "unit": "nM"}, {"measurement": "IC50", "setting": "PNP (Calf spleen); [1]", "result": 310, "unit": "nM"}]}, {"molecule": "Nc1nc2c(Cc3cccs3)c[nH]c2c(=O)[nH]1", "note": "[Example 2k, 2-Amino-3,5-dihydro-7-(2-thienylmethyl)-4H-pyrrolo-[3,2-d]pyrimidin-4-one]", "values": [{"measurement": "IC50", "setting": "CCRF-CEM Cells; 8-unsubstituted compounds", "result": 300, "unit": "nM"}]}]}
